# Values joined by “and” are separate entries in the source; they are usually repeats but may differ in a detail not shown here. Equal values may be shown once.
# Columns and labels:
# [1] = background; cited from earlier work
# [2] = Evaluation of taste profile: sugar like, bitterness, aftertaste, lingering scored 0-5 by sensory panel; assay type: in vivo, human
# Protocol: 1. The components where mixed and then dissolved in aqueous citric acid (pH 3.8) with ultrasound at room temperature and left to sit for 30 min.
# For evaluation of taste profile, the samples were tested and were scored 0-5 according to the increasing sugar like, bitterness, aftertaste and lingering taste profiles. The results were recorded as the mean value of the results provided by the panel.
# [3] = Calculated versus measured sweetness of GSG / steviol glycoside compositions from sweetness curves (synergistic effect); set-up: species or system human; details: for Calculated SE of RA97: citric acid pH 3.8
# Protocol: The sweetness of GSG-RA50 and RA97 compositions at varying concentrations was measured according to the sweetness curve (FIG. 9), and the combined sweetness of each composition of GSG-RA50 and RA97 was calculated and compared with the measured value in Table 19.
# Calculated SE (ppm sucrose) of GSG-RA50 per ppm=calculated SE of GSG-RA50/concentration of GSG-RA50. Measured sweetness (ppm sucrose) of GSG-RA50 per ppm=(Measured SE−Calculated SE of RA97)/concentration of GSG-RA50.
# The sweetness of GSG-RA95 and rebaudioside A, 97% purity (RA) RA97 compositions at varying concentrations was measured according to the sweetness curve (FIG. 13), and the combined sweetness of each composition of GSG-RA95 and RA97 was calculated and compared with the measured value in Table 23.
# Calculated sweetness (ppm sugar) of GSG-RA50 per ppm=calculated SE of GSG-RA50/concentration of GSG-RA50. Measured sweetness (ppm sugar) of GSG-RA50 per ppm=(Measured SE-calculated SE of RA97)/concentration of GSG-RA50.
# Calculated sweetness (ppm sugar) of GSG-RA20 plus RA97 per ppm=calculated SE of GSG-RA20 plus RA97/concentration of GSG-RA20 plus RA97
# Measured sweetness (ppm sugar) of GSG-RA20 plus RA97 per ppm=(Measured SE of GSG-RA20 plus RA97−sugar concentration)/concentration of GSG-RA20 plus RA97
# [4] = Solubility of spray-dried GSG-RA20 / steviol glycoside 1:1 compositions (Example 56); assay type: physicochemical
# Protocol: GSG-RA20 was mixed with RA, RB, RD or stevioside as the ratio of 1:1 by weight so as to obtain a mixture, a certain amount of solvent, such as water, ethanol/water mixture, was added into the obtained mixture, heated to a certain temperature until the mixture was completely dissolved, and the temperature was kept for an hour. The solution was treated by spray drying to obtain the composition comprising GSG and SG.
# [5] = RA97 400 ppm (control), citric acid pH 3.8
# [6] = total solid content 350 ppm, panel score
# [7] = 0.01 g of each component in 10 ml water
compound,measurement,setting,value
C=C1C[C@@]23CC[C@H]4[C@@](C)(CCC[C@@]4(C)C(=O)O[C@@H]4O[C@H](CO)[C@@H](O)[C@H](O)[C@H]4O)[C@@H]2CC[C@]1(O[C@@H]1O[C@H](CO)[C@@H](O)[C@H](O)[C@H]1O[C@@H]1O[C@H](CO)[C@@H](O)[C@H](O)[C@H]1O)C3 [Stevioside],times sweeter than sugar,[1],approximately 300 times
"C=C1C[C@@]23CC[C@H]4[C@@](C)(CCC[C@@]4(C)C(=O)O[C@@H]4O[C@H](CO)[C@@H](O)[C@H](O)[C@H]4O)[C@@H]2CC[C@]1(O[C@@H]1O[C@H](CO)[C@@H](O)[C@H](O[C@@H]2O[C@H](CO)[C@@H](O)[C@H](O)[C@H]2O)[C@H]1O[C@@H]1O[C@H](CO)[C@@H](O)[C@H](O)[C@H]1O)C3 [RA97, Rebaudioside A]",Aftertaste,[2]; [5],3
same,Bitterness,[2]; [5],2
same,Lingering,[2]; [5],4
same,Sugar like,[2]; [5],3
same,Aftertaste,[2]; [6],3
same,Bitterness,[2]; [6],2
same,Lingering,[2]; [6],4
same,Sugar like,[2]; [6],3
same,Calc. SE of RA97,"[3]; RA97 50 ppm, read from sweetness curve",1.5%
same,Calc. SE of RA97,"[3]; RA97 50 ppm, with GSG-RA90, 350 ppm total solids",1.5%
same,Calc. SE of RA97,"[3]; RA97 100 ppm, read from sweetness curve",3% and 3.2%
same,Calculated SE of RA97,[3]; RA97 100 ppm,3%
same,Calc. SE of RA97,"[3]; RA97 100 ppm, with GSG-RA90, 350 ppm total solids",3.2%
same,Calc. SE of RA97,"[3]; RA97 100 ppm, with GSG-RA95, 200 ppm total solids",3%
same,Calc. SE of RA97,"[3]; RA97 150 ppm, read from sweetness curve",4.2% and 4%
same,Calculated SE of RA97,[3]; RA97 150 ppm,4.20%
same,Calc. SE of RA97,"[3]; RA97 150 ppm, with GSG-RA90, 350 ppm total solids",4%
same,Calc. SE of RA97,"[3]; RA97 150 ppm, with GSG-RA95, 200 ppm total solids",4.2%
same,Calc. SE of RA97,"[3]; RA97 200 ppm, read from sweetness curve",5%
same,Calculated SE of RA97,[3]; RA97 200 ppm,5%
same,Calc. SE of RA97,"[3]; RA97 200 ppm, with GSG-RA90, 350 ppm total solids",5%
same,Calc. SE of RA97,"[3]; RA97 250 ppm, read from sweetness curve",6%
same,Calculated SE of RA97,[3]; RA97 250 ppm,6%
same,Calc. SE of RA97,"[3]; RA97 250 ppm, with GSG-RA90, 350 ppm total solids",6%
same,Calc. SE of RA97,"[3]; RA97 300 ppm, read from sweetness curve",6.9% and 7%
same,Calculated SE of RA97,[3]; RA97 300 ppm,6.90%
same,Calc. SE of RA97,"[3]; RA97 300 ppm, with GSG-RA90, 350 ppm total solids",6.9%
same,Calc. SE of RA97,"[3]; RA97 300 ppm, with GSG-RA95, 500 ppm total solids",7%
same,Calc. SE of RA97,"[3]; RA97 400 ppm, read from sweetness curve",8.25%
same,Calc. SE of RA97,"[3]; RA97 400 ppm, with GSG-RA95, 500 ppm total solids",8.25%
same,Measured SE of the composition,"[3]; RA97 alone, 350 ppm, no GSG",8%
same,Calculated SE of the single component (steviol glycoside composition or GSG) alone,[3]; component at 150 ppm,4.00%
same,Calculated SE of the single component (steviol glycoside composition or GSG) alone,[3]; component at 200 ppm,5.00%
same,Calculated SE of the single component (steviol glycoside composition or GSG) alone,[3]; component at 250 ppm,6.00%
C=C1C[C@@]23CC[C@H]4[C@@](C)(CCC[C@@]4(C)C(=O)O[C@@H]4O[C@H](CO)[C@@H](O)[C@H](O)[C@H]4O[C@@H]4O[C@H](CO)[C@@H](O)[C@H](O)[C@H]4O)[C@@H]2CC[C@]1(O[C@@H]1O[C@H](CO)[C@@H](O)[C@H](O[C@@H]2O[C@H](CO)[C@@H](O)[C@H](O)[C@H]2O)[C@H]1O[C@@H]1O[C@H](CO)[C@@H](O)[C@H](O)[C@H]1O)C3 [Rebaudioside D],Stable time,[4]; [7],insoluble
C=C1C[C@@]23CC[C@H]4[C@@](C)(CCC[C@@]4(C)C(=O)O[C@@H]4O[C@H](CO)[C@@H](O)[C@H](O)[C@H]4O)[C@@H]2CC[C@]1(O[C@@H]1O[C@H](CO)[C@@H](O)[C@H](O[C@@H]2O[C@H](CO)[C@@H](O)[C@H](O)[C@H]2O)[C@H]1O[C@@H]1O[C@H](CO)[C@@H](O)[C@H](O)[C@H]1O)C3 [Rebaudioside A],Stable time,[4]; 1 g in 10 ml water,2 h
Rebaudioside B,Stable time,[4]; [7],insoluble
